In ChEMBL document CHEMBL1201862, “PubChem BioAssay data set” (2004):
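Compound exposure: 48 hours, 5 concentrations, 96-well plates. GI50 marks 50% less growth.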 Activity calls are given as the source filed them. Rule as the data show it: active = GI50 up to about 1.1 µM and inactive = higher.

Tests used:
Assay in all cases: NCI-60 cell line screen, 48 h
786-0 = test system: 786-0
A498 = test system: A498
A549 = test system: A549
ACHN = test system: ACHN
CCRF-CEM = test system: CCRF-CEM
EKVX = test system: EKVX
HCT-15 = test system: HCT-15
HT-29 = test system: HT-29
KM12 = test system: KM12
M14 = test system: M14
Malme-3M = test system: Malme-3M
NCI-H226 = test system: NCI-H226
NCI/ADR-RES = test system: NCI/ADR-RES
OVCAR-3 = test system: OVCAR-3
PC-3 = test system: PC-3
SK-MEL-5 = test system: SK-MEL-5
TK-10 = test system: TK-10
UACC-257 = test system: UACC-257
UACC-62 = test system: UACC-62
SF-539 = test system: SF-539

Compound | GI50 (786-0) | GI50 (A498) | GI50 (A549) | GI50 (ACHN) | GI50 (CCRF-CEM) | GI50 (EKVX) | GI50 (HCT-15) | GI50 (HT-29) | GI50 (KM12) | GI50 (M14) | GI50 (Malme-3M) | GI50 (NCI-H226) | GI50 (NCI/ADR-RES) | GI50 (OVCAR-3) | GI50 (PC-3) | GI50 (SK-MEL-5) | GI50 (TK-10) | GI50 (UACC-257) | GI50 (UACC-62) | GI50 (SF-539)
c1cncc(CSc2ncnc3[nH]cnc23)c1 | > 100 µM (inactive) | > 100 µM (inactive) | > 100 µM (inactive) | > 100 µM (inactive) | > 100 µM (inactive) | > 100 µM (inactive) | > 100 µM | > 100 µM (inactive) | > 100 µM (inactive) | > 100 µM (inactive) | > 100 µM (inactive) | > 100 µM (inactive) | > 100 µM (inactive) | > 100 µM (inactive) | > 100 µM (inactive) | > 100 µM (inactive) | > 100 µM (inactive) | > 100 µM (inactive) | > 100 µM (inactive) | 
CC(=O)OC1CC2C(=O)C(=O)C1(C)C2(C)C (stereo not given) | > 100 µM (inactive) | > 100 µM (inactive) | > 100 µM (inactive) | > 100 µM (inactive) | > 100 µM (inactive) | > 100 µM (inactive) | > 100 µM | > 100 µM (inactive) |  | > 100 µM (inactive) | > 100 µM (inactive) | > 100 µM (inactive) | > 100 µM (inactive) | > 100 µM (inactive) | > 100 µM (inactive) | > 100 µM (inactive) | > 100 µM (inactive) | > 100 µM (inactive) | > 100 µM (inactive) | 
Cc1c(C)c(C)c(-n2[nH]c(=O)n(C)c2=O)c(C)c1C | > 100 µM (inactive) | > 100 µM (inactive) | > 100 µM (inactive) | > 100 µM (inactive) | > 100 µM (inactive) | > 100 µM (inactive) | > 100 µM | > 100 µM (inactive) | > 100 µM (inactive) | > 100 µM (inactive) |  | > 100 µM (inactive) | > 100 µM (inactive) | > 100 µM (inactive) | > 100 µM (inactive) | > 100 µM (inactive) | > 100 µM (inactive) | > 100 µM (inactive) | > 100 µM (inactive) | > 100 µM (inactive)
O=[N+]([O-])c1ccc2nc3n(c2c1)C(c1c(F)cccc1F)SC3 (stereo not given) | > 100 µM (inactive) | > 100 µM (inactive) | > 10 µM (inactive) | > 100 µM (inactive) | > 100 µM (inactive) | > 100 µM (inactive) |  | > 100 µM (inactive) | > 100 µM (inactive) |  | > 100 µM (inactive) | > 100 µM (inactive) | > 100 µM (inactive) | > 100 µM (inactive) | > 100 µM (inactive) | > 10 µM (inactive) | > 100 µM (inactive) | > 100 µM (inactive) |  | 
CN1C(c2ccccc2)=CC(=O)C(O)=C(c2ccccc2)S1(=O)=O | > 100 µM (inactive) |  | > 100 µM (inactive) | > 100 µM (inactive) | > 100 µM (inactive) | > 100 µM (inactive) | > 100 µM | > 100 µM (inactive) | > 100 µM (inactive) | > 100 µM (inactive) | > 100 µM (inactive) | > 100 µM (inactive) | > 100 µM (inactive) | > 100 µM (inactive) | > 100 µM (inactive) | > 100 µM (inactive) | > 100 µM (inactive) | > 100 µM (inactive) | > 100 µM (inactive) | > 100 µM (inactive)
COc1ccc(CN=C(N)N)c2ccccc12 | 12.7 µM (inactive) |  | 43.1 µM (inactive) | 35.6 µM (inactive) | 38.3 µM (inactive) | 21.1 µM (inactive) | > 100 µM | 15.8 µM (inactive) | 25.5 µM (inactive) | 37.1 µM (inactive) | 17.1 µM (inactive) | 27.4 µM (inactive) | > 100 µM (inactive) | 42.9 µM (inactive) | 17.7 µM (inactive) | 20 µM (inactive) | 22.2 µM (inactive) | 47 µM (inactive) | 39.4 µM (inactive) | 19.2 µM (inactive)
COc1cc2c(c(OC)c1OC)-c1ccc(OC)c(=O)cc1[C@@H](NC(=O)c1ccccc1)CC2 | 0.0184 µM (active) | < 0.0121 µM (active) | 0.018 µM (active) | 0.0305 µM (active) | < 0.01 µM (active) | 5.15 µM (inactive) | 0.021 µM | 0.0114 µM (active) | 0.0106 µM (active) | 0.0118 µM (active) | 0.016 µM (active) | 0.067 µM (active) | 0.168 µM (active) | < 0.0103 µM (active) | 0.0169 µM (active) | 0.0107 µM (active) | 0.17 µM (active) | 0.148 µM (active) | < 0.0113 µM (active) | 
CC1(C)[C@@H]2C[C@H]1[C@@H](Cc1cccc(C[C@H]3c4cc(-c5ccccn5)ncc4[C@H]4C[C@@H]3C4(C)C)c1)c1cc(-c3ccccn3)ncc12 | 2.1 µM (inactive) | > 44.4 µM (inactive) | 2.76 µM (inactive) | 1.37 µM (inactive) | 1.11 µM (active) | 4.62 µM (inactive) | 8.24 µM | 3.17 µM (inactive) | 3.12 µM (inactive) | 2.76 µM (inactive) |  | 2.83 µM (inactive) | 3.78 µM (inactive) | > 30.5 µM (inactive) | 12.6 µM (inactive) | 3.36 µM (inactive) | > 39.5 µM (inactive) | 4.62 µM (inactive) | 2.92 µM (inactive) | 4 µM (inactive)
O=C1C(NS(=O)(=O)c2ccccc2)=C(N(Cc2ccccc2)Cc2ccccc2)C(=O)c2ccccc21 | 49.3 µM (inactive) |  | 33 µM (inactive) | 44.1 µM (inactive) | 20.2 µM (inactive) | 53.7 µM (inactive) | 37.7 µM | 60.3 µM (inactive) | > 100 µM (inactive) | 43.7 µM (inactive) | 0.273 µM (active) | 64.7 µM (inactive) | 38.5 µM (inactive) | 30.4 µM (inactive) | 32.4 µM (inactive) | 80.4 µM (inactive) | 66.8 µM (inactive) | 96.8 µM (inactive) | 33.4 µM (inactive) | 67.5 µM (inactive)
Oc1ccc2c(c1)OCC1c3ccccc3OC21 (stereo not given) | > 100 µM (inactive) | > 100 µM (inactive) |  | 39.8 µM (inactive) | 30.3 µM (inactive) | 27.9 µM (inactive) | 82.6 µM | 37.9 µM (inactive) | 45.4 µM (inactive) | 74 µM (inactive) |  | > 100 µM (inactive) | 37.8 µM (inactive) | 59 µM (inactive) | 56.8 µM (inactive) | 38.5 µM (inactive) | 87.7 µM (inactive) | 86.9 µM (inactive) | 61.5 µM (inactive) | > 100 µM (inactive)
CC1=NN(c2cccc(Cl)c2)C2(SCC(=O)N2c2nc3ccccc3s2)/C1=C\c1cccs1 (stereo not given) | 19.5 µM (inactive) | 25.4 µM (inactive) | 33.8 µM (inactive) | 27.9 µM (inactive) |  | 14.6 µM (inactive) | 20.7 µM | 21.6 µM (inactive) | 25.8 µM (inactive) | 29.7 µM (inactive) |  | 20.3 µM (inactive) | 21.9 µM (inactive) | 24.8 µM (inactive) | 25.5 µM (inactive) | 18.1 µM (inactive) | 31.7 µM (inactive) | 24.4 µM (inactive) |  | 5.01 µM (inactive)
O=C(NCc1cccc2ccccc12)N/N=C\c1ccc(Cl)cc1 | > 100 µM (inactive) |  |  | > 100 µM (inactive) | > 100 µM (inactive) | 36.1 µM (inactive) | > 100 µM | > 100 µM (inactive) | 49 µM (inactive) | 74.5 µM (inactive) | > 100 µM (inactive) | > 100 µM (inactive) | > 100 µM (inactive) | > 100 µM (inactive) | > 100 µM (inactive) | 46 µM (inactive) | > 100 µM (inactive) | > 100 µM (inactive) | > 100 µM (inactive) | > 100 µM (inactive)
CC(=O)O[C@H]1C(=O)[C@@]2(C)[C@H]([C@H](OC(=O)c3ccccc3)[C@]3(O)C[C@H](OC(=O)[C@H](O)[C@@H](NC(=O)C(C)(C)C)c4ccccc4)C(C)=C1C3(C)C)[C@]1(OC(C)=O)CO[C@@H]1C[C@@H]2O | 0.324 µM (active) |  | 0.0809 µM (active) | 3.32 µM (inactive) | 0.0397 µM (active) | 1.87 µM (inactive) | 1.41 µM | 0.0414 µM (active) | 0.0221 µM (active) | 0.0982 µM (active) | 0.165 µM (active) | 0.428 µM (active) | > 10 µM (inactive) |  | 0.0565 µM (active) | 0.0435 µM (active) | 0.38 µM (active) | 0.127 µM (active) | 0.0485 µM (active) | 0.0585 µM (active)
c1cc2c3ccsc3c3sccc3c2s1 | 95.9 µM (inactive) | > 100 µM (inactive) | > 100 µM (inactive) | > 100 µM (inactive) | > 100 µM (inactive) | > 100 µM (inactive) | > 100 µM | 99.5 µM (inactive) | > 100 µM (inactive) | > 100 µM (inactive) |  | 10 µM (inactive) | > 100 µM (inactive) | > 100 µM (inactive) | > 100 µM (inactive) | > 100 µM (inactive) | > 100 µM (inactive) | > 100 µM (inactive) | > 100 µM (inactive) | 90.8 µM (inactive)
COc1cccc(-c2nc(-c3cnccn3)n(C/C=C/c3ccccc3)n2)c1 | > 10 µM (inactive) |  | > 10 µM (inactive) | > 10 µM (inactive) | > 10 µM (inactive) | > 10 µM (inactive) | > 10 µM | > 10 µM (inactive) | > 10 µM (inactive) | > 10 µM (inactive) | > 10 µM (inactive) | > 10 µM (inactive) | > 10 µM (inactive) | > 10 µM (inactive) | > 10 µM (inactive) |  | > 10 µM (inactive) | > 10 µM (inactive) | > 10 µM (inactive) | > 10 µM (inactive)
